Data as given in patent US20170318812A1, “Plant and Crop Growth Regulating/Biostimulant Formulations and Methods of Use” (Arysta Lifescience North America, LLC, priority 2014, published 2017).
Values joined by “and” are separate entries in the source; they are usually repeats but may differ in a detail not shown here. Identical values can stand only once.

Columns and labels:
[1] = system: GLXMA Glycine max (Soybean); assay: Ipfencarbazone biostimulant effect, early post emergence foliar application, greenhouse pots, plant height: soybean; type: in vivo; conditions: for Plant HEIGHT, Mean / Plant HEIGHT, single plots: Soybean BMXPOTENCIA
Description: (§1) The original objective of this Example was to evaluate the herbicidal effect of ipfencarbazone when applied as a post emergent treatment to a range of selected crops and weeds. Unexpectedly, crop plant growth stimulation was observed. The actual species of weeds and crops are listed in the summary data tabulated below and in FIGS. 1-13. By convention each plant species has a Bayer code (5-letter name) with the scientific name for the plant referenced in FIGS. 1-13. In each Figure, each tray contains the same configuration of weeds and/or crops. In each Figure there is one replication of each treatment (six treatments in total). The top three photographs in each Figure show the Bayer Codes and bottom three photographs are aligned with the top three facilitating viewing of the same plant species. Throughout the Examples various abbreviations as conventional shorthand notation and will be appreciated by those skilled in the art. Some exemplary abbreviations include, “CV”=Co-efficient of Variation,” “LSD”=Least Significant Difference” (G/L (gram per L) AND GA/L (gram of active ingredient per L); “SC”=suspension concentrate formulation. The diluent in all treatments was water. By convention factors that are identical in all treatments (e.g. diluent and surfactant) are not listed in each treatment.
(§2) Methods: The indicated size pots (see Tables below) are filled with a specific soil, the soil properties being indicated below. The referenced crops and weeds are planted by hand in each pot. […] The experiments include six treatments each replicated three times on each crop/weed species. At a specific time after emergence each crop and weed species was treated with ipfencarbazone plus a non-ionic surfactant (NIS). In the present Example, the surfactant employed was ENERGIC™ (non-ionic surfactant). The application timing is indicated in each of the Tables (1 or 2 leaf stage) below. Ipfencarbazone plus surfactant was diluted in water and applied at a rate equivalent to about 250 L/ha. Ipfencarbazone was applied using a track sprayer. After treatment, the pots were randomized in a greenhouse. At each assessment (indicated by “days after treatment” or DAT) the height of each plant was measured. The letters next to each mean indicate the level of statistical significance.
(§3) Replications: 3, Untreated treatments: 1, Design: Randomized Complete Block (RCB), Treatment units: Treated ‘Plot’ experimental unit size, Dry Form. Unit: %, Treated ‘Plot’ experimental unit size Width: 1 meter, Treated ‘Plot’ experimental unit size Length: 1.4 meters, Application volume: 250 L/ha, Mix size: 0.15 liters, […]

[2] = system: GOSHI Gossypium hirsutum (American upland cotton); assay: Ipfencarbazone biostimulant effect, early post emergence foliar application, greenhouse pots, plant height: cotton; type: in vivo; conditions: for Plant HEIGHT, Mean / Plant HEIGHT, single plots: Cotton 975WS; for HEIGHT, percent of untreated check (APoC) / HEIGHT, treatment mean: GOSHI 975WS
Description: as §1, §2, §3

[3] = GLXMA BMXPOTENCIA, 1000 g ai/ha, 15 DA-A
[4] = GLXMA BMXPOTENCIA, 1000 g ai/ha, 28 DA-A
[5] = 28 DA-A, 62.5 g ai/ha + Energic NIS 0.2 % v/v
[6] = 28 DA-A, 125 g ai/ha + Energic NIS 0.2 % v/v
[7] = 28 DA-A, 250 g ai/ha + Energic NIS 0.2 % v/v
[8] = 28 DA-A, 500 g ai/ha + Energic NIS 0.2 % v/v
[9] = 28 DA-A, 1000 g ai/ha + Energic NIS 0.2 % v/v
[10] = 15 DA-A, 62.5 g ai/ha + Energic NIS 0.2 % v/v
[11] = 15 DA-A, 125 g ai/ha + Energic NIS 0.2 % v/v
[12] = 15 DA-A, 250 g ai/ha + Energic NIS 0.2 % v/v
[13] = 15 DA-A, 500 g ai/ha + Energic NIS 0.2 % v/v

CC(C)N(C(=O)n1cnn(-c2ccc(Cl)cc2Cl)c1=O)c1ccc(F)cc1F [ARY-0572-001, ipfencarbazone]
HEIGHT, percent of untreated check (APoC) [1, 3]: (65.5%) | HEIGHT, treatment mean [1, 3]: 8.7 cd cm and 8.7 cm | HEIGHT, single plots (replicates) ([1]; GLXMA BMXPOTENCIA, 1000 g ai/ha, 15 DA-A, plots 106, 203, 304): 6.7 cm and 10.0 cm and 9.3 cm | HEIGHT, percent of untreated check (APoC) [1, 4]: (71.3%) | HEIGHT, treatment mean [1, 4]: 14.9 bc cm | Plant HEIGHT, Mean [1, 5]: 30.6 cm | Plant HEIGHT, single plots [1, 5]: 32.7 cm and 29.3 cm and 29.7 cm | Plant HEIGHT, Mean [1, 6]: 23.8 cm | Plant HEIGHT, single plots [1, 6]: 20.7 cm and 22.7 cm and 28.0 cm | Plant HEIGHT, Mean [1, 7]: 18.3 cm | Plant HEIGHT, single plots [1, 7]: 20.3 cm and 21.7 cm and 13.0 cm | Plant HEIGHT, Mean [1, 8]: 13.2 cm | Plant HEIGHT, Mean [1, 9]: 14.9 cm | Plant HEIGHT, single plots [1, 9]: 9.0 cm and 18.0 cm and 17.7 cm | Plant HEIGHT, Mean [2, 10]: 16.1 cm | Plant HEIGHT, single plots [2, 10]: 19.2 cm and 13.7 cm and 15.3 cm | Plant HEIGHT, Mean [2, 11]: 11.9 cm | Plant HEIGHT, single plots [2, 11]: 9.7 cm and 12.0 cm and 14.0 cm | Plant HEIGHT, Mean [2, 12]: 9.5 cm | Plant HEIGHT, single plots [2, 12]: 9.3 cm and 9.2 cm and 10.0 cm | Plant HEIGHT, Mean [2, 13]: 7.7 cm | Plant HEIGHT, single plots [2, 13]: 9.2 cm and 6.3 cm and 7.7 cm | Plant HEIGHT, Mean ([2]; 15 DA-A, 1000 g ai/ha + Energic NIS 0.2 % v/v): 6.9 cm | Plant HEIGHT, Mean [2, 5]: 24.9 cm | Plant HEIGHT, single plots [2, 5]: 26.0 cm and 27.7 cm and 21.0 cm | Plant HEIGHT, Mean [2, 6]: 17.7 cm | Plant HEIGHT, single plots [2, 6]: 19.0 cm and 17.3 cm and 16.7 cm | Plant HEIGHT, Mean [2, 7]: 15.8 cm | Plant HEIGHT, Mean [2, 8]: 13.2 cm | Plant HEIGHT, Mean [2, 9]: 8.9 cm | HEIGHT, percent of untreated check (APoC) ([2]; 62.5 g ai/ha, 15 DA-A): (137.6%) | HEIGHT, treatment mean ([2]; 62.5 g ai/ha, 15 DA-A): 16.1 a cm | HEIGHT, percent of untreated check (APoC) ([2]; 62.5 g ai/ha, 28 DA-A): (154.5%) | HEIGHT, treatment mean ([2]; 62.5 g ai/ha, 28 DA-A): 24.9 a cm | HEIGHT, percent of untreated check (APoC) ([2]; 125 g ai/ha, 15 DA-A): (101.9%) | HEIGHT, treatment mean ([2]; 125 g ai/ha, 15 DA-A): 11.9 b cm | HEIGHT, percent of untreated check (APoC) ([2]; 125 g ai/ha, 28 DA-A): (109.7%) | HEIGHT, treatment mean ([2]; 125 g ai/ha, 28 DA-A): 17.7 ab cm | HEIGHT, percent of untreated check (APoC) ([2]; 250 g ai/ha, 15 DA-A): (81.4%) | HEIGHT, treatment mean ([2]; 250 g ai/ha, 15 DA-A): 9.5 bc cm | HEIGHT, percent of untreated check (APoC) ([2]; 250 g ai/ha, 28 DA-A): (97.9%) | HEIGHT, treatment mean ([2]; 250 g ai/ha, 28 DA-A): 15.8 bc cm | HEIGHT, percent of untreated check (APoC) ([2]; 500 g ai/ha, 15 DA-A): (66.2%) | HEIGHT, treatment mean ([2]; 500 g ai/ha, 15 DA-A): 7.7 c cm | HEIGHT, percent of untreated check (APoC) ([2]; 500 g ai/ha, 28 DA-A): (82.1%) | HEIGHT, treatment mean ([2]; 500 g ai/ha, 28 DA-A): 13.2 bc cm | HEIGHT, percent of untreated check (APoC) ([2]; 1000 g ai/ha, 15 DA-A): (59.5%) | HEIGHT, treatment mean ([2]; 1000 g ai/ha, 15 DA-A): 6.9 c cm | HEIGHT, percent of untreated check (APoC) ([2]; 1000 g ai/ha, 28 DA-A): (55.2%) | HEIGHT, treatment mean ([2]; 1000 g ai/ha, 28 DA-A): 8.9 c cm
